Laboratory results: patent US20100150938A1, “METHODS AND COMPOSITIONS FOR REDUCING INFLAMMATION AND TREATING INFLAMMATORY DISORDERS” (UNIVERSITY OF MASSACHUSETTS, priority 2008, published 2010)
Entries after “also recorded” stand apart in the source; their conditions may differ.

Columns and labels:
Type in all cases: cell-based
mouse microglia [1] = assay: TNF-α release from primed microglia (ELISA); details: primed immortalized microglia, 24 h
Protocol: (§1) Stimulations were carried out in serum free DMEM medium. Microglial cells and macrophages were primed with 100 U/ml IFNγ (Griess assay, TNF ELISA, real-time quantitative PCR) or 100 ng/ml ultrapure LPS (IL-1β ELISA, FLICA, ASC-CFP microglia cell line assay, Western blot) 1-3 h prior to stimulation with Aβ, revAβ, zymosan, ATP or transfection with dAdT.
(§2) Cell culture supernatants were assayed for IL-1β and TNFα using ELISA kits from R&D Systems (Minneapolis, Minn.) according to the manufacturer's instructions. Nitric oxide was measured by Griess reaction of nitrites accumulated in the supernatants using chemicals from Sigma.

mouse microglia [2] = assay: IL-1β release from LPS-primed mouse microglia (ELISA)
Protocol: For primary cultures, bone marrow-derived macrophages and microglia were isolated as described^42,43 and cultured in DMEM supplemented with L-glutamine, ciprofloxacin (Cellgro, Manassas, Va.) and 10% fetal calf serum (Hyclone, Logan, Utah) Immortalized macrophage and microglial cell lines were generated using J2 recombinant retrovirus (carrying v-myc and v-raf oncogenes)^44,45. Briefly, primary bone marrow cells were incubated in L929 conditioned medium for 3-4 days to induce macrophage differentiation. Cells were then infected with J2 recombinant retrovirus and maintained in culture until cells were growing in the absence of conditioned medium. Similarly, primary mixed glial cultures were cultured until fully confluent. After two consecutive infections with J2 retrovirus, cells were maintained in normal medium until growth of microglial cells in colonies was observed. The semi-adherent colonies of microglial cells were washed off and cultured in new flasks. […] Microglial cell lines form wild type (C57/BL6), Caspase-1^−/− and IL-IR^−/− mice as well as macrophage cell lines from wild type (C57BL6), NALP3 -, IPAF- and ASC-deficient mice were generated and used for experiments as indicated.
as §1, §2

mouse microglia [3] = assay: Nitric oxide production by primed microglia (Griess reaction); details: primed immortalized microglia, 24 h
Protocol: as §1, §2

human PBMCs = assay: IL-1β release from human PBMCs (ELISA, Western blot)
Protocol: (§3) Bone marrow derived macrophages were generated as described (Severa, M et al. Journal of Biological Chemistry 281:26188-26195 (2006)). Human PBMCs were isolated by from whole blood of healthy volunteers by density gradient centrifugation. Lysis of red blood cells was performed using red blood cell lysis buffer (Sigma). Experiments in PBMCs and macrophages were carried out at a cell density of 2×10^6 cells/ml. All primary cells and cell lines except THP-1 cells were cultured in DMEM supplemented with L-glutamine, ciprofloxacin (Cellgro, Manassas, Va.) and 10% fetal calf serum (Hyclone, Logan, Utah). THP-1 cells were cultured in RPMI supplemented with 10% fetal calf serum (Hyclone), L-glutamine, sodium pyruvate (Cellgro), and ciprofloxacin. One day prior to stimulation, THP-1 cells were differentiated using 0.5 μM PMA for three hours, washed three times and plated for stimulation. All experiments that were performed for Western blot analysis were carried out in serum free DMEM medium. ATP stimulations were carried out at 5 mM one hour prior to harvesting supernatants.
(§4) Cell culture supernatants were assayed for IL-1β using ELISA kits from BD Biosciences (Franklin Lakes, NJ) according to the manufacturer's instructions. To measure intracellular IL-1β, cells were washed and subjected to three freeze thaw cycles in assay diluent.
Cell culture supernatants were precipitated by adding an equal volume of methanol and 0.25 volumes of chloroform, vortexed and centrifuged at 20.000×g for 10 min. The upper phase was discarded and 500 μl of methanol was added to the interphase. This mixture was centrifuged at 20.000×g for 10 min and the protein pellet dried at 55° C., resuspended in Laemmli buffer and boiled at 99° C. for 5 min. Samples were separated by SDS-PAGE (15%) and transferred onto nitrocellulose membranes. […]

mouse macrophages [4] = assay: Crystal uptake (phagocytosis) in mouse macrophages, confocal reflection microscopy; details: cytochalasin D 2.5 μM
From the text: Confocal reflection microscopy was combined with fluorescence microscopy on a Leica SP2 AOBS confocal laser scanning microscope. Reflection was captured by placing the detector channel directly over the wavelength of the selected laser channel for reflection light capture and the AOBS was set to allow 5-15% of laser light into the collection channel. Fluorescence was simultaneously captured by standard confocal imaging techniques.
To visualize the uptake of crystalline material in living cells, we devised a method to image crystals simultaneously with cellular components stained with fluorescent dyes (FIG. 8b). We used this method to study the uptake of crystals into mouse macrophages. […] The median length of silica Q6 crystals engulfed by phagocytosis was 1.65 μm (FIG. 3c).

mouse macrophages [5] = assay: IL-1β release from LPS-primed mouse macrophages (bone marrow-derived, B6-MCLs), ELISA; details: LPS-primed B6-MCLs, cytochalasin D 30 min
Protocol: as §3
Immortalized macrophage cell lines were generated using the previously described J2 recombinant retrovirus (carrying v-myc and v-raf/mil oncogenes) (Roberson, S. M. & Walker, W. S. Cellular immunology 116:341-351 (1988)). Briefly, primary bone marrow cells were incubated in L929 conditioned medium for 3-4 days to induce macrophage differentiation. Subsequently, cells were infected with J2 recombinant retrovirus. Cells were maintained in culture for 3-6 months slowly weaning off the percentage of L929 supernatant until cells were growing in the absence of conditioned medium.
Macrophage phenotype was verified by surface marker expression for CD11b and F480 as well as a range of functional parameters, including responsiveness to TLR ligands and bacterial uptake. Macrophage cell lines from wild-type (C57BL6), NALP3- and ASC-deficient mice were generated and are referred to as B6-MCLs, NALP3 -MCLs and ASC-MCLs.
as §4, §1

[6] = wild type immortalized microglia
[7] = human PBMCs pretreated with cytochalasin D

SMILES: COC(=O)C[C@H](NC(=O)[C@H](C)NC(=O)[C@@H](NC(=O)[C@H](Cc1ccc(O)cc1)NC(=O)OCc1ccccc1)C(C)C)C(=O)CF [z-YVAD, z-YVAD-fmk]
- Aβ-induced TNF-α release, inhibitor present (mouse microglia [1]): attenuated; also recorded: inhibited
- ATP-induced IL-1β release in presence of caspase-1 inhibitor (mouse microglia [2]; primary microglia): also inhibited
- Aβ-induced IL-1β release in presence of caspase-1 inhibitor (mouse microglia [2]; primary microglia): dose-dependently reduced
- Aβ-induced IL-1β release in presence of caspase-1 inhibitor (mouse microglia [2]; wild type immortalized microglial cells, 6 h): dose-dependent inhibition; also recorded: significant attenuation
- Aβ-induced NO production, inhibitor present (mouse microglia [3]): strongly and dose-dependently attenuated; also recorded: strongly inhibited
- IL-1β response to silica crystal treatment in presence of inhibitor (human PBMCs; LPS-primed human PBMCs, silica crystals, z-YVAD, 6 h): almost completely abolished

SMILES: C=C1[C@@H](C)[C@H]2[C@H](Cc3ccccc3)NC(=O)[C@]23[C@H](OC(C)=O)/C=C/[C@@](C)(O)C(=O)[C@@H](C)C/C=C/[C@H]3[C@@H]1O [cytochalasin D]
- ATP-induced IL-1β release in presence of cytochalasin D (mouse microglia [2]; [6]): no effect; also recorded: not affected
- Aβ-induced IL-1β release in presence of cytochalasin D (mouse microglia [2]; [6]): strongly attenuated; also recorded: dose-dependently inhibited
- phagocytosis of silica or MSU crystals by treated cells (mouse macrophages [4]): failed to engulf
- IL-1β response to ATP, inhibitor present (mouse macrophages [5]): unaffected
- IL-1β release after treatment with MSU or silica crystals, inhibitor present (mouse macrophages [5]; MSU 250 μg/ml, silica 500 μg/ml): abrogated
- IL-1β release after treatment with MSU or silica crystals, inhibitor pretreatment (human PBMCs; [7]): completely abrogated
- IL-1β response to R-848 or ATP, inhibitor pretreatment (human PBMCs; [7]): unaffected
